Patent US20030040438A1, “Method for increasing the yield of beans” (priority 2000, published 2003)

Tested on: soybean seeds (Variety: Halosoy)
Assay: Test of Yield Increasing Effect on Soybeans (seed drenching)
Assay type: in vivo
Details: seeds drenched 12 hours; for Productive grain increasing index: average number of productive grains per plant in non-treated section = 100%; for Yield increasing index per plant: harvest 110 days after sowing, yield (g) in non-treated section = 100%; for One grain weight: weight per selected bean after threshing and drying, non-treated 0.22 g

In the case of CCC1(C(=O)NC(C)c2ccc(Cl)cc2)C(C)C1(Cl)Cl [Carpropamid, N-(R)-[1-(4-chloro-phenyl)-ethyl]-2,2-dichloro-1-ethyl-3t-methyl-1r-cyclopropanecarboxamide], the “Productive grain increasing index” value (1 ppm) is reported as 127.1%, the “Yield increasing index per plant” value (1 ppm) is reported as 131.1% and the One grain weight (1 ppm) is reported as 0.23 g. The “Productive grain increasing index” value (10 ppm) was 163.5%, the “Yield increasing index per plant” value (10 ppm) was 173.1% and the One grain weight (10 ppm) was 0.23 g. For the same compound, the “Productive grain increasing index” value (100 ppm) was 163.4%, the “Yield increasing index per plant” value (100 ppm) was 169.1% and the One grain weight (100 ppm) was 0.23 g. For the same compound, the “Productive grain increasing index” value (1000 ppm) was 126.8%, the “Yield increasing index per plant” value (1000 ppm) was 132.2% and the One grain weight (1000 ppm) was 0.23 g.
